US20260042764A1, “COMPOSITIONS AND METHODS FOR INHIBITION OF KRAS” (TheRas, Inc., priority 2022, published 2026)

Assays:
[1] = target: T1, Avi-KRAS WT (1-169) GppNHp/RAF1 RBD-3xFLAG (52-151) (Homo sapiens, UniProt P01116); test: Raf1-KRAS WT-GppNHP disruption HTRF assay (Biological Example 1); type: binding; conditions: KRAS WT-GppNHp/RAF1 RBD HTRF
T1 construct: Avi-KRAS WT (1-169)
Method in brief: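 Using HTRF, the loss of KRAS–effector RAF1 complex was quantified in 50 mM Tris pH 7.5 buffer with 100 mM NaCl and 0.1% BSA. The protein step and reagent step ran 1 h each at room temperature. Activity normalized with DMSO taken as 100%.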

GP2d cells (KRAS G12D) = test: Cell-based pERK HTRF assay in GP2d cell (Biological Example 2); conditions: GP2d, GP2d (KRAS G12D) cells
Method in brief: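 Phospho-ERK is measured by HTRF following a 60 min compound exposure at 0.25% DMSO, with a 9-point half-log curve topping at 1 μM or 100 nM.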

[2] = target: T2, Avi-KRAS G12C (2-169) GTP/RAF1 RBD-3xFLAG (51-131) (Homo sapiens, UniProt P01116, G12C); test: Raf1-KRAS G12C-GTP disruption HTRF assay (Biological Example 3); type: binding; conditions: KRAS G12C, GTP-loaded
T2 construct: Avi-KRAS G12C (2-169)
T2 sequence (P01116 2-169 isoform P01116-2 G12C): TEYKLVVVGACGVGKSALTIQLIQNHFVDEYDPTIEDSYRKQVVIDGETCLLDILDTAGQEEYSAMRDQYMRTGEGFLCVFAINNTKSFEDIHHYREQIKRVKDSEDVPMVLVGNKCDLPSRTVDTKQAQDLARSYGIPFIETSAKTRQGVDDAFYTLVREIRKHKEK
Method in brief: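 Each KRAS-GTP/RAF1 RBD complex at 50 nM, with 75 nM 3xFLAG-RAF1 RBD (51-131)-Avi, in 50 mM Tris pH 7.5, 100 mM NaCl, 5 mM MgCl2, 0.1% BSA, 0.01% Tween 20, 10% DMSO. Compounds titrated from 30 μM, 10-point 3x series; 1 h at room temperature with shaking. HTRF read, activity as percent of DMSO.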

T1 sequence (P01116 1-169 isoform P01116-2): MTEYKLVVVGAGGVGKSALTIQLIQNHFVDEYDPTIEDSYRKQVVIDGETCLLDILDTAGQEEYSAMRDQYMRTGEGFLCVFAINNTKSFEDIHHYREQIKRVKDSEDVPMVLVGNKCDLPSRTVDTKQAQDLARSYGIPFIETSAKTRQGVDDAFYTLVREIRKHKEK

Structure (SMILES) | IC50 [1] [nM] | IC50 (GP2d cells (KRAS G12D)) [nM] | IC50 (GP2d cells (KRAS G12D); pERK HTRF) [nM] | IC50 [2] [nM]
CCN(c1nc(OC[C@@]23CCCN2C[C@H](F)C3)nc2c(F)c(-c3ccc(F)c4sc(N)c(C#N)c34)c(C(F)(F)F)cc12)C1C[C@@H](C)N(C(=O)C2CC2)C1 (some centres unmarked) [Compound 516] | 100 to 1000 | < 100 | < 100 | 100 to 1000
CN(C)C(=O)c1nn2c(c1Cl)CN(c1nc(OC[C@@]34CCCN3C[C@H](F)C4)nc3c(F)c(-c4ccc(F)c5sc(N)c(C#N)c45)c(C(F)(F)F)cc13)CC2 [Compound 517] | 100 to 1000 | < 100 | < 100 | 100 to 1000
CCN(c1nc(OC[C@@]23CCCN2C[C@H](F)C3)nc2c(F)c(-c3ccc(F)c4sc(N)c(C#N)c34)c(C(F)(F)F)cc12)[C@@H]1CC(=O)N(C)C1 [Compound 520] | 100 to 1000 | < 100 | < 100 | 100 to 1000
CCN1C[C@@H](N(CC)c2nc(OC[C@@]34CCCN3C[C@H](F)C4)nc3c(F)c(-c4ccc(F)c5sc(N)c(C#N)c45)c(C(F)(F)F)cc23)CC1=O [Compound 529, 2-amino-4-(4-(ethyl((S)-1-ethyl-5-oxopyrrolidin-3-yl)amino)-8-fluoro-2-(((2R,7aS)-2-fluorotetrahydro-1H-pyrrolizin-7a(5H)-yl)methoxy)-6-(trifluoromethyl)quinazolin-7-yl)-7-fluorobenzo[b]thiophene-3-carbonitrile] | < 100 | < 100 | < 100 | ≤ 100
CCN(c1nc(OC[C@@]23CCCN2C[C@H](F)C3)nc2c(F)c(-c3ccc(F)c4sc(N)c(C#N)c34)c(C(F)(F)F)cc12)[C@@H]1CC(=O)N(C2CC2)C1 [Compound 537] | < 100 | < 100 | < 100 | 100 to 1000
